According to ChEMBL document CHEMBL1201862, “PubChem BioAssay data set” (2004):
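All cell lines were grown in 96-well plates and treated with compound for 48 hours. The concentration for 50% growth inhibition is given as GI50.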 The source made the active and inactive calls. Cut-off read from the data, not from the text of the source: active = GI50 up to about 1.1 µM and inactive = higher.

Tests used:
Assay in all cases: NCI tumour cell line growth inhibition, 48 h
786-0 = system: 786-0
ACHN = system: ACHN
EKVX = system: EKVX
MDA-MB-435 = system: MDA-MB-435
MDA-N = system: MDA-N
Malme-3M = system: Malme-3M
NCI-H226 = system: NCI-H226
NCI/ADR-RES = system: NCI/ADR-RES
OVCAR-8 = system: OVCAR-8
SF-268 = system: SF-268
SN12C = system: SN12C
SNB-75 = system: SNB-75
T47D = system: T47D
UACC-257 = system: UACC-257
UACC-62 = system: UACC-62
UO-31 = system: UO-31
A498 = system: A498
CAKI-1 = system: CAKI-1
HL-60 = system: HL-60

Compound	GI50 (786-0)	GI50 (ACHN)	GI50 (EKVX)	GI50 (MDA-MB-435)	GI50 (MDA-N)	GI50 (Malme-3M)	GI50 (NCI-H226)	GI50 (NCI/ADR-RES)	GI50 (OVCAR-8)	GI50 (SF-268)	GI50 (SN12C)	GI50 (SNB-75)	GI50 (T47D)	GI50 (UACC-257)	GI50 (UACC-62)	GI50 (UO-31)	GI50 (A498)	GI50 (CAKI-1)	GI50 (HL-60)
Cc1ccc(-c2cnc(NC3OC(COC(=O)c4ccccc4)C(OC(=O)c4ccccc4)C(OC(=O)c4ccccc4)C3OC(=O)c3ccccc3)s2)cc1 (stereo unspecified)	44.6 µM (inactive)	> 100 µM (inactive)	> 100 µM (inactive)	> 100 µM (inactive)	> 100 µM (inactive)	> 100 µM (inactive)	> 100 µM (inactive)	> 100 µM (inactive)	> 100 µM (inactive)	> 100 µM (inactive)	> 100 µM (inactive)	> 100 µM (inactive)	> 100 µM (inactive)	67.9 µM (inactive)	94.6 µM (inactive)	> 100 µM (inactive)			
O=C1N/N=C\Nc2ccc(cc2)S(=O)(=O)c2ccc(cc2)/N=C\NNC1=O	> 100 µM (inactive)	> 100 µM (inactive)	> 100 µM (inactive)	> 100 µM (inactive)	> 100 µM (inactive)		> 100 µM (inactive)	> 100 µM (inactive)	> 100 µM (inactive)	> 100 µM (inactive)	> 100 µM (inactive)		> 100 µM (inactive)	> 100 µM (inactive)	> 100 µM (inactive)	> 100 µM (inactive)	20 µM (inactive)	> 100 µM (inactive)	10.1 µM (inactive)
C/C(=N\NC(=S)NCCCCNC(=S)N/N=C(\C)c1ccccn1)c1ccccc1	6.18 µM (inactive)	0.601 µM (active)	2.23 µM (inactive)	> 100 µM (inactive)	2.25 µM (inactive)	0.845 µM (active)		0.914 µM (active)	0.337 µM (active)	0.394 µM (active)	0.859 µM (active)	0.993 µM (active)	0.351 µM (active)	1.78 µM (inactive)	1.12 µM (active)	0.635 µM (active)	3.05 µM (inactive)		
CCc1n[nH]c(=O)n1/N=C/c1ccccc1Cl	> 100 µM (inactive)	> 100 µM (inactive)	1.42 µM (inactive)	85.7 µM (inactive)	> 100 µM (inactive)	> 100 µM (inactive)	88.5 µM (inactive)	> 100 µM (inactive)	> 100 µM (inactive)	50 µM (inactive)	> 100 µM (inactive)		> 100 µM (inactive)	> 100 µM (inactive)	53.6 µM (inactive)	> 100 µM (inactive)	> 100 µM (inactive)	> 100 µM (inactive)	> 100 µM (inactive)
CC(Br)C(=O)NN1C2=C(Nc3ccccc31)c1cccc3cccc2c13 (stereo unspecified)	45.9 µM (inactive)	31.2 µM (inactive)	> 100 µM (inactive)	> 100 µM (inactive)	90.6 µM (inactive)	> 100 µM (inactive)	> 100 µM (inactive)	65.2 µM (inactive)	55.8 µM (inactive)	> 100 µM (inactive)	> 100 µM (inactive)	40.9 µM (inactive)	2.29 µM (inactive)	48.2 µM (inactive)		> 100 µM (inactive)		74 µM (inactive)	57.5 µM (inactive)
O=[As](O)(O)c1ccc(/N=N/c2ccc([As](=O)(O)O)cc2)cc1	> 100 µM (inactive)	> 100 µM (inactive)	> 100 µM (inactive)	> 100 µM (inactive)	> 100 µM (inactive)	> 100 µM (inactive)	> 100 µM (inactive)	> 100 µM (inactive)	> 100 µM (inactive)	> 100 µM (inactive)	> 100 µM (inactive)		> 100 µM (inactive)	> 100 µM (inactive)	> 100 µM (inactive)	> 100 µM (inactive)	> 100 µM (inactive)	> 100 µM (inactive)	> 100 µM (inactive)
O=C(Sc1n[nH]c(=O)[nH]c1=O)c1cccc2nc3ccccc3nc12	> 100 µM (inactive)	30.2 µM (inactive)	> 100 µM (inactive)	13.7 µM (inactive)	11.8 µM (inactive)	5.64 µM (inactive)	34.4 µM (inactive)	> 100 µM (inactive)	> 100 µM (inactive)	> 100 µM (inactive)	34.3 µM (inactive)		> 100 µM (inactive)	13.2 µM (inactive)	38.8 µM (inactive)		> 100 µM (inactive)	78.3 µM (inactive)	> 100 µM (inactive)
COC(=O)[C@@]12CC[C@]1(C(=O)OC)C1C(C)=CC(=O)O[C@@]12C (stereo partly specified)	> 100 µM (inactive)	> 100 µM (inactive)	> 100 µM (inactive)	> 100 µM (inactive)	> 100 µM (inactive)	> 100 µM (inactive)	> 100 µM (inactive)	> 100 µM (inactive)	> 100 µM (inactive)	> 100 µM (inactive)	> 100 µM (inactive)	> 100 µM (inactive)	> 100 µM (inactive)	> 100 µM (inactive)	> 100 µM (inactive)	> 100 µM (inactive)			> 100 µM (inactive)
